Results on 2 molecules are retold here after patent US10144758B2, “Deuterated bile acids” (Metselex, Inc., priority 2013, dated 2018).

In assay [1] the test system is primary rat hepatocytes. Briefly: TGF-β1-induced cytotoxicity, LDH release. The note with it: 1 nM TGF-β1 36 hours; 100 μM compound; FIG. 8A. In kind it is cell-based. The procedure:
Primary rat hepatocytes were isolated from male rats (100-150 grams) by collagenase perfusion (as described by Solá S, et al., 2003, Journal of Biological Chemistry 278: 48831-48838)). Briefly, rats were anesthetized with phenobarbital sodium (100 mg/kg body weight) injected into the peritoneal cavity. After administration of heparin (200 units/kg body weight) in the tail vein, the animal's abdomen was opened and the portal vein exposed and cannulated. The liver was then perfused at 37° C. in situ with a calcium-free Hanks' Balanced Salt Solution (HBSS) for about 10 minutes, and then with 0.05% collagenase type IV in calcium-present HBSS for another 10 minutes. […] Cell viability was determined by trypan blue exclusion and was typically 80-85%. […]
The ApoTox-Glo™ Triplex Assay (Promega Corp., Madison, Wis., USA) was used to evaluate cell viability, cytotoxicity and caspase-3/7 activity, according to the manufacturer's protocol, using a GloMax+ Multi Detection System (Promega Corp.). General cell death was also evaluated using the lactate dehydrogenase (LDH) Cytotoxicity Detection Kit^PLUS (Roche Diagnostics GmbH, Mannheim, Germany), following the manufacturer's instructions. […]
In general terms: LDH leaks from cells whose membrane has failed.

Assay [2] deals with primary rat hepatocytes. Briefly: DCA-induced apoptosis, nuclear fragmentation by Hoechst staining. It counts as cell-based. The settings on record: for prevention of nuclear fragmentation: 50 μM DCA, 100 μM compound pretreatment, FIG. 7C. The procedure: Primary rat hepatocytes were isolated from male rats (100-150 grams) by collagenase perfusion (as described by Solá S, et al., 2003, Journal of Biological Chemistry 278: 48831-48838)). Briefly, rats were anesthetized with phenobarbital sodium (100 mg/kg body weight) injected into the peritoneal cavity. After administration of heparin (200 units/kg body weight) in the tail vein, the animal's abdomen was opened and the portal vein exposed and cannulated. The liver was then perfused at 37° C. in situ with a calcium-free Hanks' Balanced Salt Solution (HBSS) for about 10 minutes, and then with 0.05% collagenase type IV in calcium-present HBSS for another 10 minutes. Hepatocyte suspensions were obtained by passing collagenase-digested livers through 125 μm gauze and washing cells in Complete William's E medium (William's E medium, Sigma-Aldrich Corp., St Louis, Mo., USA) supplemented with 26 mM sodium bicarbonate, 23 mM HEPES, 0.01 units/mL insulin, 2 mM L-glutamine, 10 nM dexamethasone, 100 units/mL penicillin, and 10% heat-inactivated fetal bovine serum (Invitrogen Corp., Carlsbad, Calif., USA). Viable primary rat hepatocytes were enriched by low-speed centrifugation at 200 g for 3 minutes. Cell viability was determined by trypan blue exclusion and was typically 80-85%. After isolation, hepatocytes were resuspended in Complete William's E medium and plated on PrimariaTM tissue culture dishes (BD Biosciences, San Jose, Calif., USA) at 5×10^4 cells/cm^2. Cells were maintained at 37° C. in a humidified atmosphere of 5% CO2 for 6 hours to allow attachment. […] Fluorescence was visualized using an Axioskop fluorescence microscope (Carl Zeiss GmbH). Blue-fluorescent nuclei were scored blindly and categorized according to the condensation and staining characteristics of chromatin. […] Five random microscopic fields per sample containing approximately 150 nuclei were counted, and mean values expressed as the percentage of apoptotic nuclei. […] Results are expressed as means±SEM of at least three experiments. *p<0.01 from control; § p<0.05 and †p<0.01 from respective DCA.

Consider “7,8-[^2H]-3α,7α-dihydroxy-5β-cholan-24-oic acid/7-[^2H]-3α,7α-dihydroxy-5β-cholan-24-oic acid [Compound 5]”, for which, in the assay on primary rat hepatocytes [1], the “more effective than UDCA at inhibiting TGF-β1-induced LDH release” value is listed as “about 10%”. Also, the “prevention of nuclear fragmentation” value in the assay with primary rat hepatocytes [2] is listed as approximately 65%. Further, in the assay on primary rat hepatocytes [2] (DCA, Compound 5 versus UDCA), the “more effective than UDCA at reducing the percentage of apoptotic cells” value is approximately 15%.

Take `C[C@H](CCC(=O)O)[C@H]1CC[C@H]2[C@@H]3[C@@H](O)C[C@@H]4C[C@H](O)CC[C@]4(C)[C@H]3CC[C@]12C` [UDCA, Ursodeoxycholic acid, reference compound]: in the assay on primary rat hepatocytes [2], the “prevention of nuclear fragmentation” value is recorded as approximately 50%.
